Source: patent US20110152166A1, “METHOD OF MODULATION OF PROTEIN PHOSPHORYLATION-DEPENDENT CONFORMATIONAL TRANSITIONS WITH LOW MOLECULAR WEIGHT COMPOUNDS” (priority 2006, published 2011)
Substitutions are numbered along the chain they refer to. Where two headings read alike, the source gives them in different places. Ends that are not written are not given here.

Assays:
Test in all cases: PDK1 activity assay with T308tide
Format in all cases: biochemical
GST-PDK1 [Val124Ala] = biological target: T1, GST-PDK1 [Val124Ala] (Homo sapiens, UniProt O15530, V124A)
T1 construct: different protein constructs, comprising the full length protein or the catalytic domain alone; made in house; host or cells: HEK293 cells (pEBG-2T-PDK1 mutant)
T1 sequence (O15530 1-556 V124A): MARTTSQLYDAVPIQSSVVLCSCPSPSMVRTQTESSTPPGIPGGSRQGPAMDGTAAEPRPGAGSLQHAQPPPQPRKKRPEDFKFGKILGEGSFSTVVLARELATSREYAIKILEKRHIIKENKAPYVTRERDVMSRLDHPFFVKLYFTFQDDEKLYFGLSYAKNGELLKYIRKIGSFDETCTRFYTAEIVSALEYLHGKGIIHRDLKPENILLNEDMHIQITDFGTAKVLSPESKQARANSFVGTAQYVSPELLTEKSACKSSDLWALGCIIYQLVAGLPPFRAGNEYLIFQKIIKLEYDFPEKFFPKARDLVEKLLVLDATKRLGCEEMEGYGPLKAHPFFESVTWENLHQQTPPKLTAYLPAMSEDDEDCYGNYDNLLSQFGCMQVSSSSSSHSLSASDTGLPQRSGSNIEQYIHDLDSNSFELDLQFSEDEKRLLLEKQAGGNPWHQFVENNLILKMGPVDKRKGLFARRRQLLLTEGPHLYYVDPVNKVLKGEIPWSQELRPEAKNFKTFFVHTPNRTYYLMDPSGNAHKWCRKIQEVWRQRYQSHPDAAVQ

GST-PDK1 [Arg131Met] = biological target: T2, GST-PDK1 [Arg131Met] (Homo sapiens, UniProt O15530, R131M)
T2 construct: different protein constructs, comprising the full length protein or the catalytic domain alone; made in house; host or cells: HEK293 cells (pEBG-2T-PDK1 mutant)
T2 sequence (O15530 1-556 R131M): T1 sequence (O15530 1-556 V124A) with A124V, R131M

GST-PDK1 [Ser135Ala] = biological target: T3, GST-PDK1 [Ser135Ala] (Homo sapiens, UniProt O15530, S135A)
T3 construct: different protein constructs, comprising the full length protein or the catalytic domain alone; made in house; host or cells: HEK293 cells (pEBG-2T-PDK1 mutant)
T3 sequence (O15530 1-556 S135A): T1 sequence (O15530 1-556 V124A) with A124V, S135A

| AC50 (GST-PDK1 [Val124Ala]) | Max. activity (GST-PDK1 [Val124Ala]) | activation of PDK1 mutant (in words) (GST-PDK1 [Arg131Met]; Arg131 mutated to Met) | AC50 (GST-PDK1 [Arg131Met]; GST-PDK1 [Arg131Met]) | AC50 (GST-PDK1 [Ser135Ala]) | Max. activity (GST-PDK1 [Ser135Ala]) | Max. activity (GST-PDK1 [Arg131Met]; GST-PDK1 [Arg131Met]) | AC50 (GST-PDK1 [Arg131Met]; GST-PDK1 [Arg131Met], read-out: AC50) | Compound |
| --- | --- | --- | --- | --- | --- | --- | --- | --- |
| > 200000 nM | 2.6 ± 0.5 U/mg | no longer activated | No Effect | 109 ± 33 µM | 2.82 ± 0.4 U/mg | – | – | O=C(O)CSC(CC(=O)c1ccc(Cl)cc1)c1ccccc1 (stereo not drawn) [Compound 1] |
| 210 ± 30 nM | 1.91 ± 0.06 U/mg | – | – | 0.18 ± 0.02 µM | 3.4 ± 0.09 U/mg | 0.34 ± 0.06 U/mg | 290 ± 50 nM | REPRILSEEEQEMFRDFDYIADWC [PIFtide, reference compound] |
